# Results published in US11691960B2, “2-[thiophen-2-yl)formamido]-N-(phenyl)-2-methylpropanamide derivatives and the use thereof as medicament” (Boehringer Ingelheim International GmbH, priority 2020, dated 2023).
# Tests used:
# [1] = Assay F: tissue distribution in mouse after oral application; type: in vivo
# Excerpt: (§1) In order to estimate the amount of administered drug to enter the brain, the brain to plasma ratio is used as surrogate parameter. As efflux transporters (e.g. P-gp) are located at the blood-brain barrier, compounds acting as substrates will be actively transported out of the brain. As these efflux transporters are not expressed in muscle tissue, the relative distribution ratio of compound between muscle and brain tissue can be used as indication for an efflux in vivo in rats or mice. In case there is no in vivo efflux detectable (in rats/mice) and in case there is no efflux in vitro (MDCK-MDR1 (P-gp)), a brain exposure in patients can be expected [see Table 7 for comparison of in vitro efflux data (MDCK-MDR1 assay) and in vivo efflux data (tissue distribution in rat/mouse after oral application)].
# (§2) Assay F. Determination of Tissue Distribution in Rat/Mouse After Oral Application of Compounds
# Male Han Wistar rats or C57BL/6NRj mice were orally dosed with 10 μmol/kg of compound to be investigated, suspended in 0.5% Natrosol/0.015% Tween80. Blood was collected in K3EDTA containing vials from the sublingual vein in short time Isoflurane anesthesia in rat or from the saphenous vein in conscious mice at […], 0.25, 0.5, 1, 2, 3, 4, 8 and 24 hours post administration. Subsequently, plasma was prepared by centrifugation for 5 min at 5000 rpm and stored at −20° C. […]
# human Factor Xa = human Factor Xa (Homo sapiens (Human), UniProt P00742); assay: Assay C: human Factor Xa chromogenic substrate assay; type: biochemical; conditions: for IC50: human Factor Xa 0.86 nM, chromogenic substrate S2765; for Selectivity Assay C/Assay A: ratio IC50 Factor Xa / IC50 IDO1
# Experimental: Assay C. In Vitro Testing of Human Factor Xa Potency:
# Measurement of active human Factor Xa using a specific chromogenic substrate which is labeled with a p-nitro-anilino group (pNA). The cleavage in between the binding of the peptide substrate and the pNA-group is followed by a color change, which can be detected at 405 nm. The amount of cleaved substrate is directly proportional to the amount of active Xa.
# […] (100 U) human Factor Xa (Enzyme Research Laboratories; HFXa1011) were solved in 0.444 ml H2O (Millipore), which accords to a stock solution of 19.28 μM or 225 U/ml. Further dilutions were made in the assay buffer (Tris 100 mM, NaCL 150 mM, adjusted to a pH of 7.8 with HCL, containing 0.1% BSA and 0.05% Tween20). 25 mg (1 vial) of the chromogenic substrate S2765 (Chromogenix; S2765) was solved in 3.5 ml H2O (Millipore) to achieve a stock solution of 10 mM.
# Compounds were solved and diluted in DMSO where the final dilution in the assay is 1:10 resulting in a final concentration of 1% DMSO.
# • the prefinal dilution step was 1:10 in the assay buffer containing 11% DMSO resulting in 10% DMSO • final dilution in the assay is 1:10 resulting in a final concentration of 1% DMSO
# Compounds were tested at final concentrations of 10 μM to 0.003 nM or lower. 5 μl human factor Xa (final concentration 0.86 nM), 2 μl compound dilution or assay buffer (containing 10% DMSO) and 8 μl assay buffer were pipetted in triplicates into a 384-well plate and incubated in the Thermomix at 24° C. for 10 minutes.
# After addition of 5 μl chromogenic substrate (final concentration 0.5 mM) the enzyme-substrate reaction started and the kinetic measurement with the SpectraMax Monochromator was started within 1-2 minutes. • Parameter of measurement: (Spectra ax, Monochromator) • Absorbance; 1.LM 405 nM • Kinetic: 16 min each 2nd minute (9 times) • Negative Control (NC) 5 μl human factor Xa+10 μl assay buffer+5 μl Substrate • Positive Control (PC): 5 μl human factor Xa+2 μl Nafamostat (commercially available, final concentration: 1 μM)+8 μl assay buffer+5 μl Substrate • Blank (optional): 15 μl assay buffer+5 μl Substrate
# Calculation of IC50, KI and the % effect at the highest concentration (Ratio)
# For the calculation the average of the Vmax-values in between 120 sec to 720 sec were taken.
# A x/y-Plot was created: x=log (M, Compound); y=vmax (drfu/min)
# The data were analyzed with the curve fitting model: log (inhibitor) vs. response—Variable slope (four parameters)
# The results of this fit were Top, Bottom, Log (IC50, M), Hillslope and IC50 (M)
# [2] = Assay F: tissue distribution in rat after oral application; type: in vivo
# Excerpt: as §1, §2
# Male Han Wistar rats or C57BL/6NRj mice were orally dosed with 10 μmol/kg of compound to be investigated, suspended in 0.5% Natrosol/0.015% Tween80. Blood was collected in K3EDTA containing vials from the sublingual vein in short time Isoflurane anesthesia in rat or from the saphenous vein in conscious mice at […], 0.25, 0.5, 1, 2, 3, 4, 8 and 24 hours post administration. Subsequently, plasma was prepared by centrifugation for 5 min at 5000 rpm and stored at −20° C.
# Tissues and CSF were sampled in anaesthetized animals. CSF was collected from the cisterna magna. Following exsanguination a femoral muscle sample was collected. Cranium and the dura matter were removed and the complete brain was collected. Before transfer of the muscle and brain sample to pre-weight homogenization devices (Precellys®) the tissues were rinsed with saline and blotted dry.
# For homogenization, four parts (v/w) homogenization buffer (37.5% acetonitrile, 37.5% methanol, 25% water) were added. Tissues were homogenized with a Precellys® Evolution homogenizer. Five μL of the homogenate were added to 70 μL of a 1 to 1 (v/v) mixture of acetonitrile and methanol and frozen for at least 10 min at −18° C.
# For final sample preparation, the sample was centrifuged at 4000 rpm for 1 min, and an aliquot of the resulting supernatant (30 μL) was mixed with 170 μL formic acid prior to injection to LC-MS. Calibration curves were prepared accordingly in rat and mouse plasma, respectively. All animal care and experimental procedures at Boehringer Ingelheim were conducted in compliance with the German and European Animal Welfare Act (EU Directive 2010/63/EU) and were approved by the Regierungspräsidium Tübingen as the responsible local German authority (reference number 35/9185.81-8/14-009-G).
# [3] = oral 10 μmol/kg, muscle/brain tissue distribution
# Sequence of human Factor Xa (P00742 235-488): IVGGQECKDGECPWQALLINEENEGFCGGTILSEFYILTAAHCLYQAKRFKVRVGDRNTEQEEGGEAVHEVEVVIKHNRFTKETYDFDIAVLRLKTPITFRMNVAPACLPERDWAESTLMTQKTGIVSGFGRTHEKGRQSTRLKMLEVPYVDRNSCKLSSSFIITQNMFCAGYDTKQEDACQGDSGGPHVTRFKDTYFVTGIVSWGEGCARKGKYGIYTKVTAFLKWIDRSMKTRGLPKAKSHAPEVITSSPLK
# Sequence of human Factor Xa (P00742 41-179 partner): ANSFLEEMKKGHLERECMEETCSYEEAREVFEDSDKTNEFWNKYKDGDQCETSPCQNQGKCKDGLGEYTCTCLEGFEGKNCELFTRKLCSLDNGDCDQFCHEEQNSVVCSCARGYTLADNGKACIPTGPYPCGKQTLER
Compound,in vivo efflux (in words) ([1]; after oral application),"in vivo efflux (Assay F) [1, 3]",IC50 (human Factor Xa),Selectivity Assay C/Assay A (human Factor Xa),in vivo efflux (in words) ([2]; after oral application),"in vivo efflux (Assay F) [2, 3]"
"CC(C)(NC(=O)c1ccc(Cl)s1)C(=O)Nc1ccc(Cl)c(F)c1 [Example 3, 2-[(5-chlorothiophen-2-yl)formamido]-N-(4-chloro-3-fluorophenyl)-2-methylpropanamide]",neither in vitro nor in vivo efflux,0.60 (mouse),> 10 µM,>55,–,–
"CC(C)(NC(=O)c1ccc(Cl)s1)C(=O)Nc1ccc(Br)cc1 [Example 4, 2-[(5-chlorothiophen-2-yl)formamido]-N-(4-bromophenyl)-2-methylpropanamide]",–,–,> 10 µM,>42,neither in vitro nor in vivo efflux,0.50 (rat)
